Reference: US4315005A, “Cephalosporin antibiotics” (Glaxo Group Limited, priority 1979, dated 1982)

Columns and labels:
[1] = distribution in the bodies of small rodents; format: in vivo
[2] = system: strains of Staphylococcus aureus; assay: antibacterial activity against Staphylococcus aureus; format: cell-based
[3] = administration of 500 mg/kg to mice (lethality); format: in vivo; details: for deaths: 500 mg/kg; for LD50: mouse, in vivo
[4] = effect of human serum on antibacterial properties; format: cell-based
[5] = system: strains of Pseudomonas organisms, e.g. strains of Pseudomonas aeruginosa; assay: antibacterial activity against Pseudomonas strains; format: cell-based
[6] = system: gram-negative bacteria; assay: experimental infections in mice with gram-negative bacteria; format: in vivo
[7] = effect of increased inocula; format: cell-based
[8] = system: strains of Pseudomonas aeruginosa; assay: protection of mice against strains of Pseudomonas aeruginosa; format: in vivo; details: for protection compared with treatment with an aminoglycoside such as amikacin: vs amikacin
[9] = serum half-life in primates; format: in vivo; details: extrapolated to man
[10] = system: wide range of commonly encountered pathogenic organisms; assay: broad spectrum antibiotic activity; format: cell-based

SMILES	distribution in the body [1]	therapeutic levels after subcutaneous injection [1]	activity against strains of Staphylococcus aureus [2]	deaths [3]	LD50 [3]	antibacterial properties in human serum [4]	activity against strains of Pseudomonas [5]	treatment of experimental infections with gram-negative bacteria [6]	effect of increased inocula against the compounds [7]	protection against strains of Pseudomonas aeruginosa [8]	protection compared with treatment with an aminoglycoside such as amikacin [8]	probable half-life in man from serum half-life in primates [9]	general antibiotic properties [10]
CC(C)(O/N=C(\C(=O)N[C@@H]1C(=O)N2C(C(=O)[O-])=C(CSc3cc[n+](CC(N)=O)cc3)CS[C@H]12)c1csc(N)n1)C(=O)O [(6R,7R)-7-[(Z)-2-(2-Aminothiazol-4-yl)-2-(2-carboxyprop-2-oxyimino)acetamido] -3-[(1-carbamoylmethylpyridinium-4-yl)thiomethyl]ceph-3-em-4-carboxylate]	well distributed	useful therapeutic levels	useful activity	did not cause any deaths	> 500 mg/kg	generally are not impaired by human serum	excellent activity	successfully treated	low	good protection	comparable with the treatment with an aminoglycoside such as amikacin	comparatively long half-life in man	to an outstanding extent
NC(=O)C[n+]1ccc(SCC2=C(C(=O)[O-])N3C(=O)[C@@H](NC(=O)/C(=N\OC4(C(=O)O)CCC4)c4csc(N)n4)[C@H]3SC2)cc1 [(6R,7R)-7-[(Z)-2-(2-Aminothiazol-4-yl)-2-(1-carboxycyclobut-1-oxyimino)acetamido]-3-[(1-carbamoylmethylpyridinium-4-yl)thiomethyl]ceph-3-em-4-carboxylate]	well distributed	useful therapeutic levels	useful activity	did not cause any deaths	> 500 mg/kg	generally are not impaired by human serum	excellent activity	successfully treated	low	good protection	comparable with the treatment with an aminoglycoside such as amikacin	comparatively long half-life in man	to an outstanding extent
